Test system: 695427-040-R-J1-PDC complex spheroid viability
Test: Anticancer human tumor 695427-040-R-J1-PDC patient-derived colon adenocarcinoma cell line growth inhibition [POLQ]
Settings: for IC50: curve of first compound; for viability, T/C: stronger effect = lower value
Method in brief: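 PDC + HUVEC + MSC complex spheroids; POLQ inhibitors ± partner drugs; top conc. at/near clinical Cmax, else 10 microM (SN-38 1 microM), half-log dilutions; 37 degrees C, 5% CO2.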

[1] = second compound 0.0316 µM, first compound 0.0316 µM
[2] = second compound 0.0316 µM, first compound 0.1 µM
[3] = second compound 0.0316 µM, first compound 0.316 µM
[4] = second compound 0.0316 µM, first compound 1 µM
[5] = second compound 0.0316 µM, first compound 3.16 µM
[6] = second compound 0.0316 µM, first compound 10 µM
[7] = second compound 0.1 µM, first compound 0.0316 µM
[8] = second compound 0.1 µM, first compound 0.1 µM
[9] = second compound 0.1 µM, first compound 0.316 µM
[10] = second compound 0.1 µM, first compound 1 µM
[11] = second compound 0.1 µM, first compound 3.16 µM
[12] = second compound 0.1 µM, first compound 10 µM
[13] = second compound 0.316 µM, first compound 0.0316 µM
[14] = second compound 0.316 µM, first compound 0.1 µM
[15] = second compound 0.316 µM, first compound 0.316 µM
[16] = second compound 0.316 µM, first compound 1 µM
[17] = second compound 0.316 µM, first compound 3.16 µM
[18] = second compound 0.316 µM, first compound 10 µM
[19] = second compound 1 µM, first compound 0.0316 µM
[20] = second compound 1 µM, first compound 0.1 µM
[21] = second compound 1 µM, first compound 0.316 µM
[22] = second compound 1 µM, first compound 1 µM
[23] = second compound 1 µM, first compound 3.16 µM
[24] = second compound 1 µM, first compound 10 µM
[25] = second compound 3.16 µM, first compound 0.0316 µM
[26] = second compound 3.16 µM, first compound 0.1 µM
[27] = second compound 3.16 µM, first compound 0.316 µM
[28] = second compound 3.16 µM, first compound 1 µM
[29] = second compound 3.16 µM, first compound 3.16 µM
[30] = second compound 3.16 µM, first compound 10 µM
[31] = second compound 10 µM, first compound 0.0316 µM
[32] = second compound 10 µM, first compound 0.1 µM
[33] = second compound 10 µM, first compound 0.316 µM
[34] = second compound 10 µM, first compound 1 µM
[35] = second compound 10 µM, first compound 3.16 µM
[36] = second compound 10 µM, first compound 10 µM
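Note: spheroids exposed to compounds for seven days.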
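Throughout, for viability, T/C: 100% = DMSO vehicle control viability.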

`C=CC(=O)N1CCN(c2nc(=O)n(-c3c(C)ccnc3C(C)C)c3nc(-c4c(O)cccc4F)c(F)cc23)C(C)C1` (stereo unspecified) + Nc1ccc(C#CCN(C(=O)Cc2ncc(C(F)(F)F)cc2C(F)(F)F)c2ccc(F)cc2)nn1 was tested, and the IC50 (second compound 0.0316 µM) was greater than 10 µM, the IC50 (second compound 0.1 µM) was greater than 10 µM and the IC50 (second compound 0.316 µM) was greater than 10 µM. For the same molecule, the IC50 (second compound 1 µM) was greater than 10 µM, the IC50 (second compound 3.16 µM) was greater than 10 µM and the IC50 (second compound 10 µM) was greater than 10 µM. It also gave a viability, T/C [1] of 108%, a viability, T/C [2] of 104% and a viability, T/C [3] of 110%. The viability, T/C [4] was 111%, the viability, T/C [5] was 110% and the viability, T/C [6] was 104%. The viability, T/C [7] was 108%, the viability, T/C [8] was 110% and the viability, T/C [9] was 107%. The viability, T/C [10] was 92.2%, the viability, T/C [11] was 104% and the viability, T/C [12] was 113%. For the same molecule, the viability, T/C [13] was 116%, the viability, T/C [14] was 107% and the viability, T/C [15] was 102%. The viability, T/C [16] was 105%, the viability, T/C [17] was 120% and the viability, T/C [18] was 95.3%. For the same molecule, the viability, T/C [19] was 102%, the viability, T/C [20] was 95.2% and the viability, T/C [21] was 97.9%. For the same molecule, the viability, T/C [22] was 101%, the viability, T/C [23] was 107% and the viability, T/C [24] was 96.9%. The viability, T/C [25] was 105%, the viability, T/C [26] was 101% and the viability, T/C [27] was 104%. It also gave a viability, T/C [28] of 97.3%, a viability, T/C [29] of 107% and a viability, T/C [30] of 98.3%. The viability, T/C [31] was 97.2%, the viability, T/C [32] was 84.4% and the viability, T/C [33] was 102%. It also gave a viability, T/C [34] of 96.3%, a viability, T/C [35] of 121% and a viability, T/C [36] of 97.6%.

Molecule `CCc1c2c(nc3ccc(O)cc13)-c1cc3c(c(=O)n1C2)COC(=O)[C@]3(O)CC` + Nc1ccc(C#CCN(C(=O)Cc2ncc(C(F)(F)F)cc2C(F)(F)F)c2ccc(F)cc2)nn1 has an IC50 (second compound 0.0316 µM) greater than 1 µM, an IC50 (second compound 0.1 µM) greater than 1 µM and an IC50 (second compound 0.316 µM) greater than 1 µM. For the same molecule, the IC50 (second compound 1 µM) was greater than 1 µM, the IC50 (second compound 3.16 µM) was greater than 1 µM and the IC50 (second compound 10 µM) was greater than 1 µM. The viability, T/C (second compound 0.0316 µM, first compound 0.00316 µM) was 116%, the viability, T/C (second compound 0.0316 µM, first compound 0.01 µM) was 102% and the viability, T/C [1] was 89.6%. For the same molecule, the viability, T/C [2] was 90.8%, the viability, T/C [3] was 81.2% and the viability, T/C [4] was 69.9%. It also gave a viability, T/C (second compound 0.1 µM, first compound 0.00316 µM) of 114%, a viability, T/C (second compound 0.1 µM, first compound 0.01 µM) of 107% and a viability, T/C [7] of 95.7%. The viability, T/C [8] was 93.5%, the viability, T/C [9] was 81.2% and the viability, T/C [10] was 60%. For the same molecule, the viability, T/C (second compound 0.316 µM, first compound 0.00316 µM) was 117%, the viability, T/C (second compound 0.316 µM, first compound 0.01 µM) was 109% and the viability, T/C [13] was 85.3%. It also gave a viability, T/C [14] of 92.6%, a viability, T/C [15] of 85.8% and a viability, T/C [16] of 68.3%. It also gave a viability, T/C (second compound 1 µM, first compound 0.00316 µM) of 107%, a viability, T/C (second compound 1 µM, first compound 0.01 µM) of 98.7% and a viability, T/C [19] of 88.4%. It also gave a viability, T/C [20] of 85.3%, a viability, T/C [21] of 83.6% and a viability, T/C [22] of 52.5%. For the same molecule, the viability, T/C (second compound 3.16 µM, first compound 0.00316 µM) was 101%, the viability, T/C (second compound 3.16 µM, first compound 0.01 µM) was 99.2% and the viability, T/C [25] was 97.9%. The viability, T/C [26] was 92%, the viability, T/C [27] was 77% and the viability, T/C [28] was 60.6%. It also gave a viability, T/C (second compound 10 µM, first compound 0.00316 µM) of 101%, a viability, T/C (second compound 10 µM, first compound 0.01 µM) of 94.8% and a viability, T/C [31] of 86.7%. It also gave a viability, T/C [32] of 85%, a viability, T/C [33] of 72.7% and a viability, T/C [34] of 57.1%.

`C#Cc1c(F)ccc2cc(O)cc(-c3ncc4c(N5CC6CCC(C5)N6)nc(OCC56CCCN5CC(F)C6)nc4c3F)c12` (stereo unspecified) + COC1C(OC(N)=O)C(O)C(Oc2ccc3c(O)c(NC(=O)c4ccc(O)c(CC=C(C)C)c4)c(=O)oc3c2C)OC1(C)C gave an IC50 (second compound 0.0316 µM) greater than 10 µM, an IC50 (second compound 0.1 µM) greater than 10 µM and an IC50 (second compound 0.316 µM) greater than 10 µM. It also gave an IC50 (second compound 1 µM) greater than 10 µM, an IC50 (second compound 3.16 µM) greater than 10 µM and an IC50 (second compound 10 µM) greater than 10 µM. The viability, T/C [1] was 113%, the viability, T/C [2] was 99.8% and the viability, T/C [3] was 108%. The viability, T/C [4] was 107%, the viability, T/C [5] was 97.3% and the viability, T/C [6] was 96.5%. The viability, T/C [7] was 110%, the viability, T/C [8] was 97.6% and the viability, T/C [9] was 105%. The viability, T/C [10] was 99.9%, the viability, T/C [11] was 102% and the viability, T/C [12] was 84.7%. The viability, T/C [13] was 107%, the viability, T/C [14] was 101% and the viability, T/C [15] was 98.2%. The viability, T/C [16] was 99.2%, the viability, T/C [17] was 95% and the viability, T/C [18] was 90%. The viability, T/C [19] was 101%, the viability, T/C [20] was 97.9% and the viability, T/C [21] was 108%. The viability, T/C [22] was 97.1%, the viability, T/C [23] was 97.1% and the viability, T/C [24] was 91%. The viability, T/C [25] was 105%, the viability, T/C [26] was 109% and the viability, T/C [27] was 98.7%. For the same molecule, the viability, T/C [28] was 94.8%, the viability, T/C [29] was 104% and the viability, T/C [30] was 90.7%. It also gave a viability, T/C [31] of 107%, a viability, T/C [32] of 104% and a viability, T/C [33] of 104%. The viability, T/C [34] was 95.6%, the viability, T/C [35] was 101% and the viability, T/C [36] was 80.4%.

Source: PubChem BioAssay AID1963840 (Molecular Pharmacology Branch, DTP, NCI, 2024)
